Results: patent publication US7294485B2, “Rat calcium channel subunits and related probes, cell lines and methods” (Neuromed Pharmaceuticals Ltd., priority 2003, dated 2007)

Assays:
α2δ-2 subunit = α2δ-2 subunit (Homo sapiens, UniProt Q9NY47); settings: Marais et al. 2001; cited from earlier work
α2δ-3 subunit = α2δ-3 subunit (Homo sapiens, UniProt Q8IZS8); settings: Marais et al. 2001; cited from earlier work
[1] = system: α2δ-3 expression in cultured rat atrial myocytes; settings: Chu 2003; cited from earlier work
[2] = system: rat α1B+β1b Ca2+ channel (N-type calcium channel); experiment: Whole-cell patch clamp current density of rat α1B+β1b channels with coexpressed α2δ-2 in transfected HEK 293 cells; type: cell-based
Procedure: Human embryonic kidney cells, HEK 293 (ATCC# CRL 1573) or HEK 293 tsA 201, were grown in standard DMEM medium supplemented with 4 mM glutamine and 10% fetal bovine serum. The rat α2δ-2 construct was transfected into HEK 293 or HEK 293 tsA 201 cells with equimolar concentration of the subunits α1B (N-type calcium channel) and β1b, using lipofectamine (Gibco/Invitrogen) according to the manufacturer's instructions. pEGFP was included in the transfected cDNA at 3-5 times less the molar concentration to detect transfected cells and to determine the efficiency of transfection. Transfected cells were incubated at 37° C., 5% CO2, for 6-24 hours and then placed at 29° C., 5% CO2.
After an incubation period of 24 to 72 hours, the culture medium was removed and replaced with an external recording solution containing (in mM) 5 BaCl, 129 CsCl, 1 MgCl2, 10 HEPES, 10 glucose, pH 7.4 with CsOH. Whole-cell patch clamp recordings were made with an Axopatch 200B amplifier (Axon Instruments, USA). […] Signals were acquired at 2.02 kHz and analyzed offline using pClamp 8.2 (Axon Instruments, USA) and Origin (OriginLab Corporation, USA) software. […]
Mean current density was recorded for 4 cells transfected with rat α1B+β1b only and for 7 cells that were also cotransfected with rat brain α2δ-2 subunit. […]

Chain of α2δ-3 subunit (Q8IZS8 29-1091): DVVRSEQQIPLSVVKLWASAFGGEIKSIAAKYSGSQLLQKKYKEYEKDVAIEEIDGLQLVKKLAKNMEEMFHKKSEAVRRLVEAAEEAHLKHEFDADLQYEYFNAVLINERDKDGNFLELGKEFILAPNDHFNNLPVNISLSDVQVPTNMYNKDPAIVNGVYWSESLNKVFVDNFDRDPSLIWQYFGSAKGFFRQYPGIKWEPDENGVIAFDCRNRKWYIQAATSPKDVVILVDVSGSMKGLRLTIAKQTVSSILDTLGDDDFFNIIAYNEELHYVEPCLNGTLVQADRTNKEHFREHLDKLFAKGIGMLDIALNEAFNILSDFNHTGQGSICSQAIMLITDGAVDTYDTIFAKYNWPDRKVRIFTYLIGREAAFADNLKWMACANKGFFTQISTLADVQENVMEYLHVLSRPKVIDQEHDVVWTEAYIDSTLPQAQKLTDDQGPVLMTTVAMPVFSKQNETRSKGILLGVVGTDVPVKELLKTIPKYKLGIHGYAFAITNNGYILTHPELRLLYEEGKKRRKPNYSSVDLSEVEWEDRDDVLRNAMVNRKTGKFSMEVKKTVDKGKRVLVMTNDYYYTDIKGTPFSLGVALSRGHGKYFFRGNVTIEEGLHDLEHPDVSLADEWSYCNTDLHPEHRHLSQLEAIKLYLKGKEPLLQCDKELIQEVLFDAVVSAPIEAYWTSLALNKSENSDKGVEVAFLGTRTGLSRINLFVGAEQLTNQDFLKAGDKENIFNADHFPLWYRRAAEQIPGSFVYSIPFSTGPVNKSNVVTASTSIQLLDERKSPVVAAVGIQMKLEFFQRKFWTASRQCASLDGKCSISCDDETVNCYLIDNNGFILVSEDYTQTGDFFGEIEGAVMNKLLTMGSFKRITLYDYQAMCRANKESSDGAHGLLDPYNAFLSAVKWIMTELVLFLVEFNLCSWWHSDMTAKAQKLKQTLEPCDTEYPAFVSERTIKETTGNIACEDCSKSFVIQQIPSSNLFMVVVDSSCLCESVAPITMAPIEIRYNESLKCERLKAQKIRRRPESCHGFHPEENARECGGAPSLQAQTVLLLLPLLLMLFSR
Chain of α2δ-2 subunit (Q9NY47 19-1150): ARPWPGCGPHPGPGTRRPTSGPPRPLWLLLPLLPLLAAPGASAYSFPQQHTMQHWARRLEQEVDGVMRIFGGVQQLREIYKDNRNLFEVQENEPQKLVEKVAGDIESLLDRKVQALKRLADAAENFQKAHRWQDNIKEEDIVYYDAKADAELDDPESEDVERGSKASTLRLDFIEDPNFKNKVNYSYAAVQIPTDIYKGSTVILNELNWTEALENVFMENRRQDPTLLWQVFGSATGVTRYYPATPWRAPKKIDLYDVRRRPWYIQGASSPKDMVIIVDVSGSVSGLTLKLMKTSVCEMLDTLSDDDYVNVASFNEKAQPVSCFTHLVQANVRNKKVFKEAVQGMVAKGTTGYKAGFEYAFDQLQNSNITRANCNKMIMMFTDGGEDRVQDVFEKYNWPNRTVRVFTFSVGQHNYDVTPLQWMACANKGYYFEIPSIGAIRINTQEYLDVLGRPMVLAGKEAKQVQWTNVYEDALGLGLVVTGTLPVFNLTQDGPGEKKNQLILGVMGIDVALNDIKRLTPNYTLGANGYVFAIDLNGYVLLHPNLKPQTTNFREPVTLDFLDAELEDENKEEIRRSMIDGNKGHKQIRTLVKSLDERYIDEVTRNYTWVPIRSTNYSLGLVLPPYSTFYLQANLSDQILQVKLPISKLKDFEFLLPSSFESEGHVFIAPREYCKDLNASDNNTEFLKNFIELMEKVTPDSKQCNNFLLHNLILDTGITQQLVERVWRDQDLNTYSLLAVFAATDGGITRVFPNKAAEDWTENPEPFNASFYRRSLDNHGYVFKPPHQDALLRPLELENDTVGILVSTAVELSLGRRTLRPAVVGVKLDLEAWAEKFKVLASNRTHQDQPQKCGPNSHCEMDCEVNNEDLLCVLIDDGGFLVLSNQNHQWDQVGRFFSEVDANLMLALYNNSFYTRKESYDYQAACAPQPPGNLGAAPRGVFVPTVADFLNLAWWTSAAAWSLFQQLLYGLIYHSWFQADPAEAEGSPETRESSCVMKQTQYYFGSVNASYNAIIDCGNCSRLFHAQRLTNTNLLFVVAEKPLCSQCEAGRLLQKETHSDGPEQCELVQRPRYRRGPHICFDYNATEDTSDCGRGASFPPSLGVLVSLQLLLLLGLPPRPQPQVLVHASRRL

Molecule: NCC1(CC(=O)O)CCCCC1 [gabapentin]
- binding to α2δ-2 subunit (α2δ-2 subunit): binds
- binding to α2δ-3 subunit (α2δ-3 subunit): not

Molecule: IGF-1: IGF-1, reported to stimulate α2δ-3 expression in cultured rat atrial myocytes
- effect on α2δ-3 expression [1]: stimulates

B1: rat brain α2δ-2 subunit: α2δ-2 calcium channel subunit present in rat brain, SEQ. ID. NO:3, 1,150 amino acids, expressed from cDNA (protein, listed as Rattus norvegicus)
chain: MAVPARTCGASWPGPVRTARPWPGRGPRPCPDPRGPASGPARPLLLLLPPLLLLPLLTAPGASAYSFPQQHTMQHWARRLEQEIDGVMRIFGGVQQLREIYKDNRNLFDVQENEPQKLVEKVAGDIESLLDRKVQALKRLADAAENFQKAHRWQDNIKEEDIMYYDAKADAELDDPESEDMERGSKTSALRLDFIEEPNFKNKVNYSYTAVQIPTDIYKGSTVILNELNWTEALENVFIENRRQDPTLLWQVFGSATGVTRYYPATPWRAPKKIDLYDVRRRPWYIQGASSPKDMVIIVDVSGSVSGLTLKLMKTSVCEMLDTLSDDDYVNVASFNEKAQPVSCFTHLVQANVRNKKVFKEAVQGMVAKGTTGYKAGFEYAFDQLQNSNITRANCNKMIMMFTDGGEDRVQDVFEKYNWPNRTVRVFTFSVGQHNYDVTPLQWMACTNKGYYFEIPSIGAIRINTQEYLDVLGRPMVLAGKDAKQVQWTNVYEDALGLGLVVTGTLPVFNLTQDGPGEKKNQLILGVMGIDVALNDIKRLTPNYTLGANGYVFAIDLNGYVLLHPNLKPQTTNFREPVTLDFLDAELEDENKEEIRRSMIDEDKGHKQIRTLVKSLDERYIDEVIRNYTWVPIRSTNYSLGLVLPPYSTYYLQANLSDQILQVKYFEFLLPSSFESEGHVFIAPREYCKDLNASDNNTEFLKNFIELMEKVTPDSKQCNNFLLHNLILDTGITQQLVERVWRDQDLNTYSLLAVFAATDGAVTRVFPNKAAEDWTENPEPFNASFYRRSLDNRGYIFKPPHQDSLLRPLELENDTVGVLVSTAVELSLGRRTLRPAVVGVKLDLEAWAEKFKVLASNRTHQDQPQKQCGPSSHCEMDCEVNNEDLLCVLIDDGGFLVLSNQNHQWDQVGRFFSEVDANLMLALYNNSFYTRKESYDYQAACAPQPPGNLGAAPRGVFVPTIADFLNLAWWTSAAAWSLFQQLLYGLIYHSWFQADPAEAEGSPETRESSCVMKQTQYYFGSVNASYNAIIDCGNCSRLFHAQRLTNTNLLFVVAEKPLCSQCEVGRLLQKETHCPADGPEQCELVQRPRYRRGPHICFDYNATEDTSDCGRGTSFPPSLGVLVSLQLLLLLGLPPRPQPQIHSFAASRRL
- mean current density (Ipeak/cell capacitance) ([2]; rat α1B+β1b coexpressed with rat brain α2δ-2 in HEK 293 cells, test potential +20 mV from holding −80 mV, 7 cells, mean±S.E.M, without α2δ-2: −7.2±2.3): −30.0±4.1 pA/pF
- increase of rat α1B+β1b current density ([2]; with versus without coexpressed α2δ-2, P=0.01): ~4 fold
